Molecules are shown by their SMILES.

One data set relates to A549. Description: Antiproliferative activity against human A549 cells overexpressing NQO1 assessed as inhibition of cell growth incubated for 72 hrs by MTT assay. It counts as functional, cell-based. The settings on record: A549, 72 h.
The test system of data set [1] is HT-29. The experiment in a line: Antiproliferative activity against human HT-29 cells overexpressing NQO1 assessed as inhibition of cell growth incubated for 72 hrs by MTT assay. It is filed as functional, cell-based. The settings on record: HT-29, 72 h. On the technique in general: Formazan colour is commonly taken as a measure of viable cells.
The next data set concerns NCI-H596. The experiment in a line: Antiproliferative activity against NQO1-deficient human NCI-H596 cells assessed as inhibition of cell growth incubated for 72 hrs by MTT assay. It is filed as functional, cell-based. The following applies: NCI-H596, 72 h.
A short description of data set [2]: Cytotoxicity against human HFL1 cells assessed as inhibition of cell growth incubated for 72 hrs by MTT assay. It is filed as toxicity, cell-based.
Data set [3] is described as follows: Selectivity index, ratio of IC50 for cytotoxicity against human HFL1 cells to IC50 for antiproliferative activity against human HT-29 cells overexpressing NQO1. It counts as toxicity, cell-based. The settings on record: HFL1 cells versus HT-29 cells overexpressing NQO1, read-out: Ratio IC50.
Data set [4] can be described thus: Selectivity index, ratio of IC50 for antiproliferative activity against NQO1-deficient human NCI-H596 cells to IC50 for antiproliferative activity against human HT-29 cells overexpressing NQO1. It is filed as functional.
For data set [5], the system named is HT-29. The experiment in a line: Antiproliferative activity against human HT-29 cells overexpressing NQO1 assessed as inhibition of cell growth preincubated with NQO1 inhibitor, dicoumarol for 30 mins followed by compound addition and measured after 72 hrs by MTT assay. It is filed as functional, cell-based.
The nature of data set [6]: Selectivity index, ratio of IC50 for antiproliferative activity against human HT-29 cells overexpressing NQO1 in presence of dicoumarol to antiproliferative activity against human HT-29 cells overexpressing NQO1. It is filed as functional.
For data set [7], the system named is HT-29. The experiment in a line: Antitumor activity against human HT-29 cells overexpressing NQO-1 xenografted in ICR mouse assessed as reduction in tumor weight at 30 mg/kg, ip administered every 2 days for 21 days and measured every 2 days relative to control. The arrangement: scale not given: the % may be the effect or the level left. It counts as functional.

Data set [8] is described as follows: Toxicity in […] xenografted with human HT-29 cells overexpressing NQO-1 assessed as reduction in body weight at 30 mg/kg, ip administered for 21 days and measured every 2 days. It counts as organism-based. The following applies: in vivo, 504 h, time 21 day. Background: In xenograft studies the graft and the host belong to different species.
The test system of data set [9] is HT-29. Description: Antitumor activity against human HT-29 cells overexpressing NQO-1 xenografted in ICR mouse assessed as reduction in tumor weight at 30 mg/kg, ip administered every day for 21 days and measured every 2 days relative to control. The arrangement: scale not given: the % may be the effect or the level left. It counts as functional. The settings on record: time 21 day.

In the case of `C=C(C)[C@@H]1CC[C@]2(C(=O)OCCOC(=O)CCC(=O)OCc3cn(C)c4c3C(=O)C(OC)=CC4=O)CC[C@]3(C)[C@H](CC[C@@H]4[C@@]5(C)CC[C@H](NC(=O)CCC(=O)N6CCNCC6)[C@@](C)(COC(C)=O)[C@@H]5CC[C@]43C)[C@@H]12`, the IC50 (in general, the concentration needed to halve the response being measured) came out at 5.17 µM in the data set on A549, 3.63 µM with HT-29 [1] and 6.44 µM in the data set on NCI-H596. In addition, the IC50 at 72 h in [2] came out at 7.11 µM. Also, in data set [3], the selectivity ratio amounted to 1.77. Besides, the “Ratio IC50” value in data set [4] turned out to be 1.96.

In the case of `C=C(C)[C@@H]1CC[C@]2(C(=O)O)CC[C@]3(C)[C@H](CC[C@@H]4[C@@]5(C)CC[C@H](OC(=O)CCCC(=O)OCc6cn(C)c7c6C(=O)C(OC)=CC7=O)[C@@](C)(COC(C)=O)[C@@H]5CC[C@]43C)[C@@H]12`, the IC50 is 4.03 µM with A549, 3.58 µM in the data set on HT-29 [1] and 4.58 µM in the data set on NCI-H596. In addition, the IC50 at 72 h in data set [2] came out at 4.09 µM. Moreover, in [3], the selectivity ratio was 1.27. Also, the “Ratio IC50” value in data set [4] is 1.36.

For the compound `C=C(C)[C@@H]1CC[C@]2(C(=O)N3CCC(N4CCCCC4)CC3)CC[C@]3(C)[C@H](CC[C@@H]4[C@@]5(C)CC[C@H](O)[C@@](C)(COC(=O)CCC(=O)OCc6cn(C)c7c6C(=O)C(OC)=CC7=O)[C@@H]5CC[C@]43C)[C@@H]12`, the IC50 turned out to be 2.66 µM with A549, 1.73 µM in the data set with HT-29 [1], 6.41 µM in the data set on NCI-H596 and 7.11 µM in the data set on HT-29 [5]. The IC50 at 72 h in data set [2] came out at 6.56 µM. The selectivity ratio in data set [3] was found to be 3.71. For the same compound, the entries for the “Ratio IC50” value in data set [4] and in data set [6] were 3.79 and 4.1, respectively.

For the compound `C=C(C)[C@@H]1CC[C@]2(C(=O)OCCOC(=O)CCC(=O)OCc3cn(C)c4c3C(=O)C(OC)=CC4=O)CC[C@]3(C)[C@H](CC[C@@H]4[C@@]5(C)CC[C@H](O)[C@@](C)(COC(=O)C6CCNCC6)[C@@H]5CC[C@]43C)[C@@H]12`, the results for the IC50 in the data set with A549, with HT-29 [1] and in the data set on NCI-H596 were 5.41 µM, 4.3 µM and 7.34 µM, respectively. Further, the IC50 at 72 h in data set [2] came out at 6.83 µM. Moreover, the selectivity ratio in data set [3] was 1.7. In addition, in data set [4], the “Ratio IC50” value is 1.59.

Regarding `C=C(C)[C@@H]1CC[C@]2(C(=O)N(CCCN(C)C)C(=O)NCC)CC[C@]3(C)[C@H](CC[C@@H]4[C@@]5(C)CC[C@H](O)[C@@](C)(COC(=O)CCC(=O)OCc6cn(C)c7c6C(=O)C(OC)=CC7=O)[C@@H]5CC[C@]43C)[C@@H]12`, the IC50 in the data set with A549 came to 2.32 µM; in the data set with HT-29 [1], 2.28 µM; in the data set on NCI-H596, 2.78 µM. In addition, the IC50 at 72 h in data set [2] worked out at 4.22 µM. Besides, in data set [3], the selectivity ratio is 1.23. The “Ratio IC50” value in data set [4] amounted to 1.85.

`O=c1[nH]cc(F)c(=O)[nH]1` [FLUOROURACIL]: the figures for the Activity (in the data set with HT-29 [7]; in data set [8]) were 65.07% and “Toxic”, respectively.

Consider `C=C(C)[C@@H]1CC[C@]2(C(=O)OCCOC(=O)CCC(=O)OCc3cn(C)c4c3C(=O)C(OC)=CC4=O)CC[C@]3(C)[C@H](CC[C@@H]4[C@@]5(C)CC[C@H](OC(=O)CCC(=O)N6CCNCC6)[C@@](C)(COC(C)=O)[C@@H]5CC[C@]43C)[C@@H]12`, for which the IC50 was determined as 5.45 µM in the data set with A549, 3.29 µM in the data set on HT-29 [1] and 6.39 µM in the data set with NCI-H596. In data set [2], the IC50 at 72 h amounted to 6.79 µM. In addition, the selectivity ratio in [3] amounted to 1.99. In data set [4], the “Ratio IC50” value came to 2.12.

Turning to `COc1cccc2c1C(=O)c1c(O)c3c(c(O)c1C2=O)C[C@@](O)(C(=O)CO)C[C@@H]3O[C@H]1C[C@H](N)[C@H](O)[C@H](C)O1` [DOXORUBICIN], the IC50 was found to be 1.15 µM in the data set with A549, 1.13 µM with HT-29 [1] and 1.52 µM with NCI-H596.

Regarding `C=C(C)[C@@H]1CC[C@]2(C(=O)O)CC[C@]3(C)[C@H](CC[C@@H]4[C@@]5(C)CC[C@H](O)[C@@](C)(CO)[C@@H]5CC[C@]43C)[C@@H]12`, the IC50 stood at 51.4 µM in the data set on A549, 54.8 µM in the data set with HT-29 [1] and 58.1 µM with NCI-H596. Also, the IC50 at 72 h in data set [2] was 75 µM. In addition, the selectivity ratio in data set [3] is 1.06. In [4], the “Ratio IC50” value was determined as 1.36. For the same compound, the Activity in the data set on HT-29 [9] came to 56.81%.

In the case of `C=C(C)[C@@H]1CC[C@]2(C(=O)O)CC[C@]3(C)[C@H](CC[C@@H]4[C@@]5(C)CC[C@H](O)[C@@](C)(COC(=O)CCCC(=O)OCc6cn(C)c7c6C(=O)C(OC)=CC7=O)[C@@H]5CC[C@]43C)[C@@H]12`, the results for the IC50 in the data set with A549, with HT-29 [1] and in the data set on NCI-H596 were 2.52 µM, 1.92 µM and 4.71 µM, respectively. Moreover, the IC50 at 72 h in [2] was 3.23 µM. The selectivity ratio in data set [3] was determined as 2.46. In [4], the “Ratio IC50” value is recorded as 1.69.

For the compound `C=C(C)[C@@H]1CC[C@]2(C(=O)O)CC[C@]3(C)[C@H](CC[C@@H]4[C@@]5(C)CC[C@H](OC(=O)CCC(=O)OCc6cn(C)c7c6C(=O)C(OC)=CC7=O)[C@@](C)(COC(C)=O)[C@@H]5CC[C@]43C)[C@@H]12`, the IC50 is 4.52 µM in the data set with A549, 3.69 µM with HT-29 [1] and 5.74 µM with NCI-H596. In addition, the IC50 at 72 h in data set [2] came out at 7.25 µM. In data set [3], the selectivity ratio came to 1.56. Also, the “Ratio IC50” value in data set [4] is reported as 1.97.

With `C=C(C)[C@@H]1CC[C@]2(C(=O)NCCNC(=O)CCC(=O)OCc3cn(C)c4c3C(=O)C(OC)=CC4=O)CC[C@]3(C)[C@H](CC[C@@H]4[C@@]5(C)CC[C@H](OC(C)=O)[C@@](C)(COC(C)=O)[C@@H]5CC[C@]43C)[C@@H]12`, the IC50 in the data set with A549 is 3.1 µM; in the data set with HT-29 [1], 1.92 µM; with NCI-H596, 7.89 µM; in the data set with HT-29 [5], 8.02 µM. Moreover, in [2], the concentration for half-maximal inhibition (IC50) at 72 h amounted to 5.78 µM. The selectivity ratio in [3] was found to be 4.1. The “Ratio IC50” value in [4] is recorded as 3.01; in [6] it was 4.2.

On to `C=C(C)[C@@H]1CC[C@]2(C(=O)OCCOC(=O)CCC(=O)OCc3cn(C)c4c3C(=O)C(OC)=CC4=O)CC[C@]3(C)[C@H](CC[C@@H]4[C@@]5(C)CCC(=O)[C@@](C)(COC(C)=O)[C@@H]5CC[C@]43C)[C@@H]12`, for which the IC50 in the data set on A549 turned out to be 3.04 µM; with HT-29 [1] it was 3.35 µM; in the data set on NCI-H596 it was 5.64 µM. In addition, the IC50 at 72 h in [2] is 6.53 µM. The selectivity ratio in [3] is 1.68. For the same compound, the “Ratio IC50” value in [4] is reported as 1.95.

For the origin of these results see ChEMBL document CHEMBL5113483, “Design and synthesis of NAD(P)H: Quinone oxidoreductase (NQO1)-activated prodrugs of 23-hydroxybetulinic acid with enhanced antitumor properties” (Eur J Med Chem, 2022).
